Data reported in US8227422B2, “Peptides and compounds that bind to a receptor” (Glaxosmithkline LLC, priority 1996, dated 2012).
Read-outs that look alike come from different tables or passages of the source. Where a SMILES comes first, the peptide text is derived from it.

Columns and labels:
TPO-R = target: T1, TPO-R (Homo sapiens, UniProt P40238); assay: Competition binding assay (equilibrium binding ELISA, MBP-TPO156 tracer) on immobilized TPO-R; settings: read-out: IC50
T1 construct: made in house
T1 sequence (P40238 26-491 limits assumed): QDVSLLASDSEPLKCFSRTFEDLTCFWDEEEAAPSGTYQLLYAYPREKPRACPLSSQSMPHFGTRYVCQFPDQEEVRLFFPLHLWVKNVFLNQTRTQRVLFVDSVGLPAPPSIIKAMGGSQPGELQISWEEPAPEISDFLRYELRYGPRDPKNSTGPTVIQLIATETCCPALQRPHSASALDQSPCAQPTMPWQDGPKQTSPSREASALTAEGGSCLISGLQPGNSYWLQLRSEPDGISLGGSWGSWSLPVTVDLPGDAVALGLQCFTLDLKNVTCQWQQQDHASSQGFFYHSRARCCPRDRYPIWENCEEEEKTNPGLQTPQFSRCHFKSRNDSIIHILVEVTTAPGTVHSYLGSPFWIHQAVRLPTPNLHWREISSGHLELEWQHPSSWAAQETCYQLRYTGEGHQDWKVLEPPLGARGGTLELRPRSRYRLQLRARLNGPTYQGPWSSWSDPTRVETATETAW
Description: A variety of methods can be used to evaluate IC50 values. For example, an equilibrium binding ELISA assay, using either MBP-TPO or lacI-peptide tracer, was used to determine whether the peptides inhibit the binding of TPO to the extracellular domain of the TPO receptor. Typically, the IC50 value were determined using the free peptide. The IC50 value can be determined using the free peptide, which optionally can be C-terminally amidated, or can be prepared as an ester or other carboxy amide.
Binding affinities of chemically synthesized peptides for TPO-R were measured in a competition binding assay. The wells of a microtiter plate were coated with 1 mg streptavidin, blocked with PBS/1% BSA, followed by 50 ng of biotinylated anti-receptor immobilizing antibody (Ab179). The wells were then treated with a 1:10 dilution of soluble TPO-R harvest. Various concentrations of peptide or peptide mimetic were mixed with a constant amount of a truncated form of TPO consisting of residues 1-156 fused to the C-terminus of maltose binding protein (MBP-TPO156). The peptide MBP-TPO156 mixtures were added to the TPO-R coated wells, incubated for 2 hours at 4° C. and then washed with PBS. The amount of MBP-TPO156 that was bound at equilibrium was measured by adding a rabbit anti-sera directed against MBP, followed by alkaline phosphatase conjugated goat anti-rabbit IgG. The amount of alkaline phosphatase in each well was then determined using standard methods.
The assay is conducted over a range of peptide concentrations and the results are graphed such that the y axis represents the amount of bound MBP-TPO156 and the x axis represents the concentration of peptide or peptide mimetic.

TPO receptor = target: T2, TPO receptor (Homo sapiens, UniProt P40238); assay: Microphysiometer assay: rate of acidification of extracellular medium on TPO receptor stimulation; assay type: cell-based
T2 sequence (P40238 26-635): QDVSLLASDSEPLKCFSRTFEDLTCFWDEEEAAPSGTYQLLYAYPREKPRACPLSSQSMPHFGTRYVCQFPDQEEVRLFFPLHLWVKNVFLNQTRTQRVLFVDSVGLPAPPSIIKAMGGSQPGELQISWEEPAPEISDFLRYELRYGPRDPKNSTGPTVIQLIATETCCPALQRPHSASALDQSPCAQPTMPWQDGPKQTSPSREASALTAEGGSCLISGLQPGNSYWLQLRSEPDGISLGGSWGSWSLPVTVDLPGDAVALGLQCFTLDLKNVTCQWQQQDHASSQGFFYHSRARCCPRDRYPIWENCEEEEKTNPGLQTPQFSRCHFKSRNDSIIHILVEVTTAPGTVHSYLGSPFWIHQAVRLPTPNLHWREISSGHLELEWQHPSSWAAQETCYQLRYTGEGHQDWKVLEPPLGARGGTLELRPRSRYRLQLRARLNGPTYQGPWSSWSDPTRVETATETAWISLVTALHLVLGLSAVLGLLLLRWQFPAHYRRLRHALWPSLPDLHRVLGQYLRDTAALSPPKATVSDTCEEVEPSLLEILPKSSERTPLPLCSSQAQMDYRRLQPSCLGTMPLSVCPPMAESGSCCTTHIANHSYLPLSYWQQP
Description: In this example cyclized compounds were subjected to three assays. […] Finally, a microphysiometer (Molecular Devices Corp.) assay was performed. […] The ranges for EC50 are symbolically indicated as for IC50 described above.

[1] = target: T3, human TPO-R (transfected Ba/F3 cells) (Homo sapiens, UniProt P40238); assay: Thrombopoietin dependent cell proliferation assay (MTT), TPO-R transfected Ba/F3 cells; assay type: cell-based
T3 construct: Murine IL-3 dependent Ba/F3 cells were transfected with full length human TPO-R; expressed in transfected cells; host or cells: murine Ba/F3 cells
T3 sequence (P40238 26-635): T2 sequence (P40238 26-635)
Description: Bioactivity of the peptides can be measured using a thrombopoietin dependent cell proliferation assay. Murine IL-3 dependent Ba/F3 cells were transfected with full length human TPO-R. In the absence of IL-3 (WEHI-3 conditioned media), these cells are dependent on TPO for proliferation.
The cells were grown in complete RPMI-10 media, containing 10% WEHI-3 conditioned media, then washed twice in PBS, resuspended in media which lacked WEHI-3 conditioned media, and added to wells containing dilutions of peptide or TPO at 2×10^4 cells/well. The cells were incubated for 48 hours at 37° C. in a humidified 5% CO2 atmosphere and metabolic activity was assayed by the reduction of MTT to formazan, with absorbance at 570 nm measured on an ELISA plate reader.

[2] = Table 4, cyclized compounds, microphysiometer, read-out: EC50 (nM) Microonys
[3] = Table 4, cyclized compounds, read-out: EC50 (nM) Proliferation
[4] = Table 7, dimer compounds, read-out: EC50 (nM) Microonys.

SMILES	EC50 (TPO receptor; [2])	EC50 [1, 3]	other results
CC[C@H](C)[C@@H]1NC(=O)[C@H](Cc2c[nH]c3ccccc23)NC(=O)[C@H](CCC(=O)O)NC(=O)[C@H](CCCNC(=N)N)NC(=O)[C@H](CC(C)C)NC(=O)[C@H]([C@@H](C)O)NC(=O)[C@@H]2CCCN2C(=O)CNC(=O)[C@H](CC(=O)O)NC(=O)[C@H](C)NC(=O)CSC(C)(C)[C@@H](C(N)=O)NC(=O)[C@H](Cc2ccccc2)NC(=O)[C@H](CO)NC1=O (HELM PEPTIDE1{[O=C(C[*:3])[*:2]].A.D.G.P.T.L.R.E.W.I.S.F.[Pen].[am]}$PEPTIDE1,PEPTIDE1,1:R3-14:R3$$$V2.0)	< 200000 nM	< 200000 nM	IC50 (TPO-R; Table 4, cyclized compounds): ≤ 200000 nM
CC[C@H](C)[C@@H]1NC(=O)[C@H](Cc2c[nH]c3ccccc23)NC(=O)[C@H](CCC(=O)O)NC(=O)[C@H](CCCNC(=N)N)NC(=O)[C@H](CC(C)C)NC(=O)[C@H]([C@@H](C)O)NC(=O)[C@@H]2CCCN2C(=O)CNC(=O)[C@H](CC(=O)O)NC(=O)[C@H](C)NC(=O)[C@@H](N)CCSSCC[C@@H](C(N)=O)NC(=O)[C@H](Cc2ccccc2)NC(=O)[C@H](CO)NC1=O (HELM PEPTIDE1{[N[C@@H](CCS[*:3])C(=O)[*:2]].A.D.G.P.T.L.R.E.W.I.S.F.[O=C([C@H](CCS[*:3])N[*:1])[*:2]].[am]}$PEPTIDE1,PEPTIDE1,1:R3-14:R3$$$V2.0)	< 200000 nM	< 200000 nM	IC50 (TPO-R; Table 4, cyclized compounds): ≤ 500 nM
CC(C)C[C@H](NC(=O)[C@H](Cc1c[nH]c2ccccc12)NC(=O)[C@H](CCC(N)=O)NC(=O)[C@H](CCCNC(=N)N)NC(=O)[C@H](CC(C)C)NC(=O)[C@@H](NC(=O)[C@@H]1CCCN1C(=O)CNC(=O)[C@H](CCC(=O)O)NC(=O)[C@@H](N)CCCCN)[C@@H](C)O)C(=O)N[C@@H](C)C(=O)N[C@@H](C)C(=O)N[C@@H](CCCNC(=N)N)C(=O)N[C@@H](C)C(=O)NCCCC[C@H](NC(=O)CCNC(=O)[C@H](C)NC(=O)[C@H](CCCNC(=N)N)NC(=O)[C@H](C)NC(=O)[C@H](C)NC(=O)[C@H](CC(C)C)NC(=O)[C@H](Cc1c[nH]c2ccccc12)NC(=O)[C@H](CCC(N)=O)NC(=O)[C@H](CCCNC(=N)N)NC(=O)[C@H](CC(C)C)NC(=O)[C@@H](NC(=O)[C@@H]1CCCN1C(=O)CNC(=O)[C@H](CCC(=O)O)NC(=O)[C@@H](N)CCCCN)[C@@H](C)O)C(N)=O			IC50 (TPO-R; Table 7, dimer compounds): ≤ 500 nM; EC50 (TPO receptor; [4]): < 500 nM
CC[C@H](C)[C@@H]1NC(=O)[C@H](Cc2c[nH]c3ccccc23)NC(=O)[C@H](CCC(=O)O)NC(=O)[C@H](CCCNC(=N)N)NC(=O)[C@H](CC(C)C)NC(=O)[C@H]([C@@H](C)O)NC(=O)[C@@H]2CCCN2C(=O)[C@@H](N)CSSC[C@@H](C(N)=O)NC(=O)[C@H](Cc2ccccc2)NC(=O)[C@H](CO)NC1=O [ADG-deletion] (HELM PEPTIDE1{C.P.T.L.R.E.W.I.S.F.C.[am]}$PEPTIDE1,PEPTIDE1,1:R3-11:R3$$$V2.0; N-terminus and C-terminus assumed)			IC50 (TPO-R; Table 5): ≤ 200000 nM; EC50 (TPO receptor; Table 5, value in parentheses, read-out: EC50 (nM), microphysiometer results given in parentheses): < 200000 nM
CC[C@H](C)[C@@H]1NC(=O)[C@H](Cc2c[nH]c3ccccc23)NC(=O)[C@H](CCC(=O)O)NC(=O)[C@H](CCCNC(=N)N)NC(=O)[C@H](CC(C)C)NC(=O)[C@H]([C@@H](C)O)NC(=O)[C@@H]2CCCN2C(=O)CNC(=O)[C@H](CC(=O)O)NC(=O)[C@H](C)NC(=O)[C@@H](N)CCCCNC(=O)CC[C@@H](C(N)=O)NC(=O)[C@H](Cc2ccccc2)NC(=O)[C@H](CO)NC1=O (HELM PEPTIDE1{K.A.D.G.P.T.L.R.E.W.I.S.F.E.[am]}$PEPTIDE1,PEPTIDE1,1:R3-14:R3$$$V2.0)	< 200000 nM	< 200000 nM	
CCCC1SC[C@@H](C(N)=O)NC(=O)[C@H](Cc2ccccc2)NC(=O)[C@H](CO)NC(=O)[C@H]([C@@H](C)CC)NC(=O)[C@H](Cc2c[nH]c3ccccc23)NC(=O)[C@H](CCC(=O)O)NC(=O)[C@H](CCCNC(=N)N)NC(=O)[C@H](CC(C)C)NC(=O)[C@H]([C@@H](C)O)NC(=O)[C@@H]2CCCN2C(=O)CNC(=O)[C@H](CC(=O)O)NC(=O)[C@H](C)NC1=O (some centres unmarked) (HELM PEPTIDE1{A.D.G.P.T.L.R.E.W.I.S.F.C.[am]}|CHEM1{[CCCC(C(=O)[*:1])[*:2]]}$PEPTIDE1,CHEM1,1:R1-1:R1|PEPTIDE1,CHEM1,13:R3-1:R2$$$V2.0)	< 200000 nM	< 500 nM	
CC[C@H](C)[C@@H]1NC(=O)[C@H](Cc2c[nH]c3ccccc23)NC(=O)[C@H](CCC(=O)O)NC(=O)[C@H](CCCNC(=N)N)NC(=O)[C@H](CC(C)C)NC(=O)[C@H]([C@@H](C)O)NC(=O)[C@@H]2CCCN2C(=O)CNC(=O)[C@H](CC(=O)O)NC(=O)[C@H](C)NC(=O)CSC[C@@H](C(=O)O)NC(=O)[C@H](Cc2ccccc2)NC(=O)[C@H](CO)NC1=O [free acid form] (HELM PEPTIDE1{[O=C(C[*:3])[*:2]].A.D.G.P.T.L.R.E.W.I.S.F.C}$PEPTIDE1,PEPTIDE1,1:R3-14:R3$$$V2.0)			EC50 (TPO receptor; Table 6, value in parentheses, read-out: EC50 (nM), microphysiometer results in parentheses): < 200000 nM; EC50 ([1]; Table 6, read-out: EC50 (nM) Cell Prolif.): < 500 nM
CC[C@H](C)[C@H](NC(=O)[C@@H](N)CSSC[C@H](N)C(=O)N[C@H](C(=O)N[C@@H](CCC(=O)O)C(=O)NCC(=O)N1CCC[C@H]1C(=O)N[C@H](C(=O)N[C@@H](CC(C)C)C(=O)N[C@@H](CCCNC(=N)N)C(=O)N[C@@H](CCC(N)=O)C(=O)N[C@@H](Cc1c[nH]c2ccccc12)C(=O)N[C@@H](CC(C)C)C(=O)N[C@@H](C)C(=O)N[C@@H](C)C(=O)N[C@@H](CCCNC(=N)N)C(=O)N[C@@H](C)C(N)=O)[C@@H](C)O)[C@@H](C)CC)C(=O)N[C@@H](CCC(=O)O)C(=O)NCC(=O)N1CCC[C@H]1C(=O)N[C@H](C(=O)N[C@@H](CC(C)C)C(=O)N[C@@H](CCCNC(=N)N)C(=O)N[C@@H](CCC(N)=O)C(=O)N[C@@H](Cc1c[nH]c2ccccc12)C(=O)N[C@@H](CC(C)C)C(=O)N[C@@H](C)C(=O)N[C@@H](C)C(=O)N[C@@H](CCCNC(=N)N)C(=O)N[C@@H](C)C(N)=O)[C@@H](C)O (HELM PEPTIDE1{C.I.E.G.P.T.L.R.Q.W.L.A.A.R.A.[am]}|PEPTIDE2{C.I.E.G.P.T.L.R.Q.W.L.A.A.R.A.[am]}$PEPTIDE1,PEPTIDE2,1:R3-1:R3$$$V2.0)			IC50 (TPO-R; Table 7, dimer compounds): ≤ 500 nM; EC50 (TPO receptor; [4]): < 500 nM
CC[C@H](C)[C@@H]1NC(=O)[C@H](Cc2c[nH]c3ccccc23)NC(=O)[C@H](CCC(=O)O)NC(=O)[C@H](CCCNC(=N)N)NC(=O)[C@H](CC(C)C)NC(=O)[C@H]([C@@H](C)O)NC(=O)[C@@H]2CCCN2C(=O)CNC(=O)[C@H](CC(=O)O)NC(=O)[C@H](C)NC(=O)[C@@H](N)C(C)(C)SSC(C)(C)[C@@H](C(N)=O)NC(=O)[C@H](Cc2ccccc2)NC(=O)[C@H](CO)NC1=O (HELM PEPTIDE1{[Pen].A.D.G.P.T.L.R.E.W.I.S.F.[Pen].[am]}$PEPTIDE1,PEPTIDE1,1:R3-14:R3$$$V2.0)	< 200000 nM	< 200000 nM	
